From patent US12595250B2, “Substituted pyrimidine compounds as multifunctional radical quenchers and their uses” (ARIZONA BOARD OF REGENTS ON BEHALF OF ARIZONA STATE …, priority 2016, dated 2026)

How the values were obtained:
FRDA lymphocytes [1] = assay: Cellular ATP concentration assay (luciferin-luciferase); assay type: cell-based, Human; details: for activity at 1 µM / activity at 5 µM / activity at 20 µM: Homo sapiens, Lymphocyte, incubation 48 h, read-out: Total ATP level (% control) FRDA lymphocytes
[2] = In vitro microsomal stability assay; assay type: in vitro ADME; details: pH 7.4, bovine liver microsomes 1 mg/mL, 25 μM compound, 37° C., NADPH, read-out: Recovery (%) of compound after reaction with activated microsomes
Experimental: Liver tissues were diced into small pieces and then washed with isotonic sucrose buffer (0.25 M sucrose, 10 mM Tris-HCl, 0.5 mM EDTA, pH 7.8). The diced tissue was passed through a precooled meat grinder and mixed with three-fold ice cold sucrose buffer supplemented with a mixture of protease inhibitors. The suspension was homogenized in a Waring blender for 25 s at high speed. At this stage, the pH of the suspension was adjusted to 7.4 with 1 M Tris base. The homogenate was centrifuged for 20 min at 1200×g to remove cell debris. The supernatant suspension was homogenized in a tight fitting Teflon-glass Potter-Elvehjem homogenizer and then centrifuged twice at 10,000×g for 20 min, collecting the supernatant each time to remove mitochondria. The floating fat layer was carefully removed by filtering the supernatant through layers of cheesecloth. The supernatant was centrifuged at 150,000×g for 30 min (Beckman-Coulter ultracentrifuge, XL-100K-01, SW 55 Ti rotor). The pellet (microsomal fraction) was suspended in 0.25 M sucrose buffer containing 10 mM Tris-HCl, pH 7.4, with 20% (v/v) glycerol, and centrifuged once more at 150,000×g. The pellet was resuspended in sucrose buffer with 20% (v/v) glycerol. The protein concentration after resuspension was approximately 20 mg/mL, as determined by BCA protein assay (Pierce Chemical) using bovine serum albumin as a standard. Aliquots of microsomal suspensions were stored at −80° C.
In vitro metabolic stability was determined in bovine liver microsomes at a protein concentration of 1 mg/mL in 50 mM phosphate buffer mixture, pH 7.4, containing 5 mM MgCl2 in a final incubation volume of 0.5 mL. Each test compound was added to a final concentration of 25 μM. This mixture was pre-warmed to 37° C. prior to starting the reaction by the addition of β-NADPH to 1 mM final concentration. After incubation for 30 min at 37° C., the reaction was quenched by the addition of 1 mL of propanol, vortexed for 2 min and centrifuged at 15,000×g for 10 min to pellet the precipitated protein. The resulting supernatant was pipetted out and then concentrated under diminished pressure. A parallel incubation of the test compound with deactivated microsomes (quenched immediately with propanol) lacking β-NADPH served as a control and was run for each test agent to detect microsome-independent degradation. The sample was reconstituted in 130 μL MeOH and centrifuged again at 15,000×g for 3 min. The supernatant was removed and 4 μM fluorene was added as an internal standard before HPLC analysis. HPLC analyses were performed on a Zorbax SB-Phenyl reversed phase analytical (150×4.6 mm, 5 m) HPLC column using a mobile phase consisting of MeOH/H2O. A linear gradient of (50:50 MeOH/H2O→100:0 MeOH/H2O) was employed over a period of 14 min at a flow rate of 1 mL/min. Metabolic stability was expressed as percent of control remaining. The experiments were carried out in duplicate to verify the results.

FRDA lymphocytes [3] = assay: Reactive oxygen species (ROS) assay (DCFH-DA, FACS); assay type: cell-based, Human; details: high concentration, 5 mM DEM
Experimental: The cells were stained with 2, 7-dichlorodihydrofluorescein diacetate (DCFH-DA) for 15 minutes prior to analysis. The samples were analyzed immediately by flow cytometry (C6 Accuri, BD Biosciences, San Jose, CA). The bar graph represents the percentage of the median mean fluorescence intensity of DCF fluorescence relative to a DEM-treated control. Data shown represent the mean±SEM of two different experiments run as duplicates.
Human mitochondrial disease cell lines, Friedreich's ataxia lymphocytes (GM15850), and Leigh's syndrome lymphocytes (GM13740) were obtained from Coriell Cell Repositories (Camden, NJ). […]
Quantitative analysis of intracellular ROS levels in FRDA lymphocytes, challenged with 5 mM diethyl maleate (DEM) in presence or absence of the test compounds, was obtained by FACS analysis using a dichlorodihydrofluorescein diacetate probe (DCFH-DA), as described in art (Goldschmidt, R., et al. Bioorg. Med Chem. 2013, 21, 969; Arce, P. M., et al. Bioorg. Med Chem. 2012, 20, 5188; Arce, P. M., et al. ACS Med Chem. Lett. 2011, 2, 608; Khdour, O. M., et al. Pharm. Res. 2011, 28, 2896; Lu, J., et al. Bioorg. Med Chem. 2010, 18, 7628; and Cai, X., et al. Bioorg. Med Chem. 2012, 20, 3584). […] The samples were analyzed immediately by flow cytometry (C6 Accuri, BD Biosciences, San Jose, CA), using a 488 nm excitation laser and the FL1-H channel 530±15 nm emission filter. […]

FRDA lymphocytes [4] = assay: Lipid peroxidation assay (C11-BODIPY 581/591, FACS); assay type: cell-based, Human; details: 5 mM DEM; for Suppression of lipid peroxidation, comparison of regioisomers (in words, FIG. 2): 0.1 μM (low concentration)
Experimental: The bar graph represents the percentage of the median mean fluorescence intensity of C11-BODIPY-green fluorescence relative to a treated control is shown. Data are expressed as the mean±SEM (n=3).
Human mitochondrial disease cell lines, Friedreich's ataxia lymphocytes (GM15850), and Leigh's syndrome lymphocytes (GM13740) were obtained from Coriell Cell Repositories (Camden, NJ). Lymphocytes were cultured in RPMI-1640 medium (Gibco, Life Technologies, Grand Island, NY) with 15% fetal calf serum, 2 mM glutamine (HyClone, South Logan, UT) and 1% penicillin-streptomycin antibiotic supplement (Cellgro, Manassas, VA). Cells were passaged every other day to maintain them in log phase growth and kept at a nominal concentration of 5-10×10^5 cell/mL. A CoQ10 deficient lymphocyte cell line (GM17932) was obtained from Coriell Cell Repositories. […]
Lipid peroxidation was measured by a quantitative FACS assay using the oxidation-sensitive fatty acid probe C11-BODIPY^581/591 (Molecular Probe) as described in art (Goldschmidt, R., et al. Bioorg. Med. Chem. 2013, 21, 969; Khdour, 0. M., et al. ACS Med. Chem. Lett. 2013, 4, 724; and Arce, P. M., et al. Bioorg. Med. Chem. 2012, 20, 5188). […] Cells were resuspended in phosphate buffered saline and were analyzed immediately by FACS (C6 Accuri, BD Biosciences, San Jose, CA), using a 488 nm excitation laser and the FL1-H channel 530±15 nm emission filter. The generation of lipid peroxide was detected as a result of the oxidation of the polyunsaturated butadienyl portion of the dye, resulting in a shift of the fluorescence emission peak from red to green. In each analysis, 10,000 events were recorded after cell debris were electronically gated out. […] Results were expressed as a percentage of the median mean fluorescence intensity of C11-BODIPY-green relative to the treated control (DEM).

| SMILES | Inhibition of ATP production (in words) (FRDA lymphocytes [1]; 20 μM) | recovery at 30 min, 25 μM [2] [%] | activity at 1 µM (FRDA lymphocytes [1]) [%] | activity at 5 µM (FRDA lymphocytes [1]) [%] | activity at 20 µM (FRDA lymphocytes [1]; 20 μM) [%] | Suppression of ROS (in words, FIG. 3) (FRDA lymphocytes [3]) | Suppression of lipid peroxidation (in words, FIG. 2) (FRDA lymphocytes [4]; high concentration) | Suppression of lipid peroxidation, comparison of regioisomers (in words, FIG. 2) (FRDA lymphocytes [4]) |
| --- | --- | --- | --- | --- | --- | --- | --- | --- |
| Cc1nc(OC2CCC2)nc(OC2CCC2)c1O [Compound 3a, 2,4-Dicyclobutanoxy-6-methylpyrimidin-5-ol] |  |  | 101 ± 1 | 99 ± 2 | 97 ± 3 |  |  |  |
| Cc1nc(N2CCC2)nc(OC2CCC2)c1O [Compound 1a, 2-(Azetidin-1-yl)-4-cyclobutanoxy-6-methylpyrimidin-5-ol] |  |  | 100 ± 1 | 98 ± 1 | 96 ± 2 |  |  |  |
| Cc1nc(OC2CCC2)nc(N2CCC2)c1O [Compound 2a, 4-(Azetidin-1-yl)-2-cyclobutanoxy-6-methylpyrimidin-5-ol] |  |  | 101 ± 1 | 99 ± 3 | 96 ± 3 |  |  |  |
| CCCCCCCCCCCCCCCCc1nc(OC2CCC2)nc(N2CCC2)c1O [Compound 2c, 4-(Azetidin-1-yl)-2-cyclobutanoxy-6-hexadecylpyrimidin-5-ol] |  | 63 ± 9 | 102 ± 2 | 110 ± 4 | 99 ± 2 |  |  | better than 1c |
| CCCCCCCCCCCCCCc1nc(N2CCC2)nc(OC2CCC2)c1O [Compound 1b, 2-(Azetidin-1-yl)-4-cyclobutanoxy-6-tetradecylpyrimidin-5-ol] |  | 63 ± 8 | 105 ± 3 | 102 ± 1 | 94 ± 2 |  |  |  |
| CCCCCCCCCCCCCCc1nc(OC2CCC2)nc(N2CCC2)c1O [Compound 2b, 4-(Azetidin-1-yl)-2-cyclobutanoxy-6-tetradecylpyrimidin-5-ol] |  | 77 | 109 ± 3 | 105 ± 2 | 54 ± 6 |  |  | significantly more efficient than 1b |
| CCCCCCCCCCCCCCCCc1nc(N2CCC2)nc(OC2CCC2)c1O [Compound 1c, 2-(Azetidin-1-yl)-4-cyclobutoxy-6-hexadecylpyrimidin-5-ol] |  | 65 ± 8 | 100 ± 1 | 114 ± 3 | 103 ± 2 |  |  |  |

Now from value to compound, other results behind:

| Inhibition of ATP production (in words) (FRDA lymphocytes [1]; 20 μM) | recovery at 30 min, 25 μM [2] [%] | SMILES | activity at 1 µM (FRDA lymphocytes [1]) [%] | activity at 5 µM (FRDA lymphocytes [1]) [%] | activity at 20 µM (FRDA lymphocytes [1]; 20 μM) [%] | Suppression of ROS (in words, FIG. 3) (FRDA lymphocytes [3]) | Suppression of lipid peroxidation (in words, FIG. 2) (FRDA lymphocytes [4]; high concentration) | Suppression of lipid peroxidation, comparison of regioisomers (in words, FIG. 2) (FRDA lymphocytes [4]) |
| --- | --- | --- | --- | --- | --- | --- | --- | --- |
| this effect seems less obvious |  | Cc1nc(N2CCC2)nc(N2CCC2)c1O [Compound 4a, 2,4-Di-(azetidin-1-yl)-6-methylpyrimidin-5-ol] | 101 ± 2 | 101 ± 2 | 85 ± 9 |  |  |  |
|  | 63 ± 5 | CCCCCCCCCCCCCCc1nc(N2CCC2)nc(N2CCC2)c1O [Compound 4b, 2,4-Di-(azetidin-1-yl)-6-tetradecylpyrimidin-5-ol] | 86 ± 3 | 46 ± 7 | 1 |  |  |  |
|  | 72 ± 3 | CCCCCCCCCCCCCCc1nc(OC2CCC2)nc(OC2CCC2)c1O [Compound 3b, 2,4-Dicyclobutanoxy-6-tetradecylpyrimidin-5-ol] | 99 ± 1 | 98 ± 2 | 94 ± 2 | appeared to be efficient | slightly efficient |  |
|  | 60 ± 5 | CCCCCCCCCCCCCCCCc1nc(OC2CCC2)nc(OC2CCC2)c1O [Compound 3c, 2,4-Dicyclobutanoxy-6-hexadecylpyrimidin-5-ol] | 98 ± 2 | 102 ± 2 | 96 ± 2 |  |  |  |
|  | 62 ± 3 | CCCCCCCCCCCCCCCCc1nc(N2CCC2)nc(N2CCC2)c1O [Compound 4c, 2,4-Di-(Azetidin-1-yl)-6-hexadecylpyrimidin-5-ol] | 92 ± 1 | 61 ± 9 | 1 ± 2 |  |  |  |
